Values after ≈ are worked out from the molar mass of the structure shown.

For one assay, the system named is C. albicans. Description: MIC, broth microdilution (NCCLS M27-A), C. albicans. The assay is classed as cell-based, Candida albicans. The following applies: Candida albicans, ATCC10231, 35° C., 48 hours, C. albicans ATCC 10231. How it is done:
(§1) Compounds of the invention were tested for antifungal susceptibility using broth microdilution assay established by the National Committee for Clinical Laboratory Standards, in NCCLS Document M27-A, which is hereby incorporated by reference. Minimum inhibitory concentrations (MICs) and minimum fungicidal concentrations (MFCs) were measured.
(§2) Yeasts (Saccharomyces cerevisiae and Candida albicans) are cultured on SDA plates in a 35° C. incubator. Strains on SDA plates are stored at 4° C. and used as working stock cultures.
(§3) Inoculum for susceptibility testing is prepared from fresh 24 hour cultures. 5-10 colonies are scraped from the plate and suspended in three milliliters of sterile 0.85% saline (8.5 g/liter NaCl). The cell density of the solution is determined by measuring the absorbance in a spectrophotometer (Shimadzu UV-1201S UV-VIS Spectrophotometer) set at 600 nm. An absorbance value between 0.1 and 0.4 is required for an accurate reading.
(§4) For Candida albicans strains ATCC 10231, 1.0 OD600 unit is approximately 10^7 cells per ml. For Saccharomyces cerevisiae strain CTY552, 1.0 OD600 unit is slightly less than 10^7 cells per ml. Cell suspensions are diluted with the appropriate medium (typically RPMI-1640) to OD600 =0.0003 for Candida and OD600 =0.0004 for Saccharomyces. The diluted suspension contains approximately 3×10^3 cells per ml (this is a 2×concentration inoculum). Two 100 μl aliquots of this dilution are spread on SDA plates and incubated at 35° C. for 1-2 days to determine the precise number of colony forming units. An acceptable range for the inoculum (2×) is 1-5×10^3 cfu/ml (100-500 for 100 μl). Following two-fold dilution of the inoculum with compound, the final concentration of cells will be 0.5-2.5×10^3 per ml. The inoculum is kept at 4° C. and used within a few hours.
(§5) Stock solutions and concentrations tested will vary from compound to compound. In general, though, stock solutions of 12.8 mg/ml in DMSO (Sigma D-8779) are prepared. This will allow for a 128 μg/ml starting test concentration containing 1% DMSO. Stock solutions are stored at -20° C. and dilutions for antifungal testing are freshly prepared before each assay.
(§6) Stock solutions of Amphotericin B and Itraconazole are prepared at 1.6 mg/ml in DMSO. Amphotericin B is sold as a powder that is approximately 80% Amphotericin B. Stock solutions are made accordingly (2.0 mg of powder for a 1 ml solution of 1.6 mg/ml Amphotericin B).
(§7) Both of these (control and test compounds) represent 1:50 dilutions. For an assay with three fungal strains, 40 microliters of a stock solution are diluted to 2.0 ml with room temperature medium.
(§8) Antifungal susceptibility tests are setup in polystyrene, 96-well, flat bottom plates (Costar 9017). To every well in columns 2-12 is added 100 microliters of media. An electronic multichannel (12) pipettor with no tip on channel one is used. To every well in column one is added 200 microliters of diluted compound (32 μg/ml for Amphotericin B and Itraconazole controls, 256 μg/ml for test compounds, 100-fold dilution for natural product extracts). A manual multichannel (8) pipettor is then used to set up a series of 2-fold dilutions. 100 microliters is removed from each well of column one and mixed with 100 microliters in column 2. This is done successively (column two to column three etc.) to produce a set of 11 serial dilutions (column 12 is a drug free control).
(§9) To every well in two rows, 100 μl of inoculum (2×) of a single strain is added. To the final two rows on the plate (G & H), only media is added. Addition of inoculum is best accomplished using an electronic multichannel (12) pipettor. This setup (see below) creates a starting cell density of […] (100-500 per well) and drug concentration ranging from 16 μg/ml to […] for controls (Amphotericin B and Itraconazole), 128 μg/ml to 0.125 μg/ml for pure test compounds, and 200 to 204, 800-fold dilutions for natural product extracts.
In general terms: Dilution methods test growth across graded concentrations, often in twofold steps.
As to `O=C(O)c1ccc(O)c(C=NNc2ccccc2C(=O)O)c1` [(22), 5-carboxyl-2-hydroxybenzaldehyde-N-2-carboxyl-phenyl hydrazone], the minimum inhibitory concentration (MIC) (in general, the lowest concentration that inhibits growth of the organism) was > 64 µg/mL.

Regarding `O=C(O)c1ccc(O)c(C=NNc2cccc(F)c2)c1` [(23), 5-carboxyl-2-hydroxybenzaldehyde-N-3-fluorophenyl hydrazone], the minimal inhibitory concentration (MIC) came to 2 µg/mL (≈ 7.29 µM).

In turn, `O=C(O)c1ccc(O)c(C=NNc2ccccc2F)c1` [(24), 5-carboxyl-2-hydroxybenzaldehyde-N-2-fluoro-phenyl hydrazone] had an MIC of 0.25 µg/mL (≈ 0.912 µM).

As for `O=C(O)c1ccc(O)c(C=NNc2ccccc2Br)c1` [(25), 5-carboxyl-2-hydroxybenzaldehyde-N-2-bromophenyl hydrazone], the MIC is 2 µg/mL (≈ 5.97 µM).

`O=C(O)c1ccc(O)c(C=NNc2ccccc2Cl)c1` [(26), 5-carboxyl-2-hydroxybenzaldehyde-N-2-chlorophenyl hydrazone] returned an MIC of 2 µg/mL (≈ 6.88 µM).

Compound `Cc1cccc(NN=Cc2cc(C(=O)O)ccc2O)c1` [(27), 5-carboxyl-2-hydroxybenzaldehyde-N-3-methyl-phenyl hydrazone] came in with an MIC of 1 µg/mL (≈ 3.7 µM).

Compound `COc1ccccc1NN=Cc1cc(C(=O)O)ccc1O` [(28), 5-carboxyl-2-hydroxybenzaldehyde-N-2-methoxy-phenyl hydrazone] showed a minimum inhibitory concentration (MIC) of 1 µg/mL (≈ 3.49 µM).

As to `Cc1c(Cl)cccc1NN=Cc1cc(C(=O)O)ccc1O` [(29), 5-carboxyl-2-hydroxybenzaldehyde-N-3-chloro-2-methyl-phenyl hydrazone], the minimal inhibitory concentration (MIC) stood at 1 µg/mL (≈ 3.28 µM).

As for `O=C(O)c1ccc(O)c(C=NNc2cccc(Cl)c2)c1` [(30), 5-carboxyl-2-hydroxybenzaldehyde-N-3-chloro-phenyl hydrazone], inhibition of growth (MIC) required 2 µg/mL (≈ 6.88 µM).

With `Oc1ccccc1CNNc1ccccc1` [(32)], the MIC turned out to be 1 µg/mL (≈ 4.67 µM).

`COc1nccnc1NNCc1ccccc1O` [(33)] showed an MIC of 2 µg/mL (≈ 8.12 µM).

Consider `FC(F)(F)c1cc(NC(=S)N/N=C/c2ccccn2)cc(C(F)(F)F)c1` [(37)], for which inhibition of growth (MIC) required 0.5 µg/mL (≈ 1.27 µM).

In turn, `Fc1ccc(NC(=S)N/N=C/c2ccccn2)cc1` [(39)] yielded a minimal inhibitory concentration (MIC) of 2 µg/mL (≈ 7.29 µM).

For another assay, the system named is S. serevisiae. Put plainly: MIC, broth microdilution (NCCLS M27-A), S. cerevisiae. The assay is classed as cell-based, Saccharomyces cerevisiae. To be noted: Saccharomyces cerevisiae, 48 h, read-out: MIC S. serevisiae. The protocol:
as §1, §2, §3, §4, §5, §6
Stock solutions of control compounds (1.6 mg/ml, Amphotericin B or Itraconazole) are initially diluted in medium to a concentration of 32 μg/ml while stock solutions of test compounds (typically 12.8 mg/ml) are diluted to 256 μg/ml. Both of these (control and test compounds) represent 1:50 dilutions. For an assay with three fungal strains, 40 microliters of a stock solution are diluted to 2.0 ml with room temperature medium.
as §8
To every well in two rows, 100 μl of inoculum (2×) of a single strain is added. To the final two rows on the plate (G & H), only media is added. Addition of inoculum is best accomplished using an electronic multichannel (12) pipettor. […]
Take `O=C(O)c1ccc(O)c(C=NNc2ccccc2C(=O)O)c1` [(22), 5-carboxyl-2-hydroxybenzaldehyde-N-2-carboxyl-phenyl hydrazone]: the MIC was > 64 µg/mL.

As for `O=C(O)c1ccc(O)c(C=NNc2cccc(F)c2)c1` [(23), 5-carboxyl-2-hydroxybenzaldehyde-N-3-fluorophenyl hydrazone], the MIC turned out to be 2 µg/mL (≈ 7.29 µM).

As to `O=C(O)c1ccc(O)c(C=NNc2ccccc2F)c1` [(24), 5-carboxyl-2-hydroxybenzaldehyde-N-2-fluoro-phenyl hydrazone], the minimum inhibitory concentration (MIC) came out at 0.5 µg/mL (≈ 1.82 µM).

With `O=C(O)c1ccc(O)c(C=NNc2ccccc2Br)c1` [(25), 5-carboxyl-2-hydroxybenzaldehyde-N-2-bromophenyl hydrazone], the MIC turned out to be 2 µg/mL (≈ 5.97 µM).

Regarding `O=C(O)c1ccc(O)c(C=NNc2ccccc2Cl)c1` [(26), 5-carboxyl-2-hydroxybenzaldehyde-N-2-chlorophenyl hydrazone], the minimum inhibitory concentration (MIC) worked out at 1 µg/mL (≈ 3.44 µM).

`Cc1cccc(NN=Cc2cc(C(=O)O)ccc2O)c1` [(27), 5-carboxyl-2-hydroxybenzaldehyde-N-3-methyl-phenyl hydrazone]: the minimal inhibitory concentration (MIC) is 1 µg/mL (≈ 3.7 µM).

Regarding `COc1ccccc1NN=Cc1cc(C(=O)O)ccc1O` [(28), 5-carboxyl-2-hydroxybenzaldehyde-N-2-methoxy-phenyl hydrazone], the MIC was 1 µg/mL (≈ 3.49 µM).

As to `Cc1c(Cl)cccc1NN=Cc1cc(C(=O)O)ccc1O` [(29), 5-carboxyl-2-hydroxybenzaldehyde-N-3-chloro-2-methyl-phenyl hydrazone], the MIC is 1 µg/mL (≈ 3.28 µM).

For the compound `O=C(O)c1ccc(O)c(C=NNc2cccc(Cl)c2)c1` [(30), 5-carboxyl-2-hydroxybenzaldehyde-N-3-chloro-phenyl hydrazone], the minimum inhibitory concentration (MIC) was found to be 1 µg/mL (≈ 3.44 µM).

For `Oc1ccccc1CNNc1ccccc1` [(32)], the minimum inhibitory concentration (MIC) turned out to be 2 µg/mL (≈ 9.33 µM).

On to `COc1nccnc1NNCc1ccccc1O` [(33)], for which the minimum inhibitory concentration (MIC) was 1 µg/mL (≈ 4.06 µM).

Turning to `FC(F)(F)c1cc(NC(=S)N/N=C/c2ccccn2)cc(C(F)(F)F)c1` [(37)], the MIC was 1 µg/mL (≈ 2.55 µM).

As to `Fc1ccc(NC(=S)N/N=C/c2ccccn2)cc1` [(39)], the MIC was determined as 2 µg/mL (≈ 7.29 µM).

For another assay, the system named is A. Nidulans. Description: MIC, broth microdilution (NCCLS M27-A), A. nidulans. The following applies: Aspergillus nidulans, 35° C., 48 hours. The assay is classed as cell-based. How it is done:
as §1
Filamentous fungi (Aspergillus spp.) is cultured on PDA plates in a 35° C. incubator. Inoculum of Aspergillus for susceptibility testing is prepared from plates incubated at 35° C. for 5 days. Colonies are covered with 5 ml of sterile 0.85% saline (8.5 g/liter NaCl) and gently rocked for 10-15 minutes. To dislodge the conidia, an automatic pipettor is used to gently wash over the colonies. The saline solution is removed from the plate and the heavy particles are allowed to settle for 3-5 minutes. The upper suspension is removed and vortexed for 15 sec. The turbidity of the solution is determined by measuring the absorbance in a spectrophotometer (Shimadzu UV-1201S UV-VIS Spectrophotometer) set at 600 nm. An absorbance value between 0.1 and 0.4 is required for an accurate reading.
The cell suspension is diluted with the appropriate medium (typically RPMI-1640) to OD600 =0.0004. The final suspension should contain approximately 3×10^3 cfu per ml (this is a 2×concentrationinoculum). Two 100 μl aliquots of this dilution are spread on SDA plates and incubated at 35° C. for 1-2 days to determine the precise number of colony forming units. An acceptable range for the inoculum (2×) is 1-5×10^3 cfu/ml (100-500 for 100 μl). Following two-fold dilution of the inoculum with compound, the final concentration of cells will be 0.5-2.5×10^3 per ml. The inoculum is kept at 4° C. and used within a few hours.
as §5, §6, §7, §8, §9
Regarding `O=C(O)c1ccc(O)c(C=NNc2ccccc2C(=O)O)c1` [(22), 5-carboxyl-2-hydroxybenzaldehyde-N-2-carboxyl-phenyl hydrazone], the MIC is > 64 µg/mL.

For `O=C(O)c1ccc(O)c(C=NNc2cccc(F)c2)c1` [(23), 5-carboxyl-2-hydroxybenzaldehyde-N-3-fluorophenyl hydrazone], the MIC came out at 0.125 µg/mL (≈ 0.456 µM).

For the compound `O=C(O)c1ccc(O)c(C=NNc2ccccc2F)c1` [(24), 5-carboxyl-2-hydroxybenzaldehyde-N-2-fluoro-phenyl hydrazone], the minimum inhibitory concentration (MIC) is 0.063 µg/mL (≈ 0.23 µM).

In turn, `O=C(O)c1ccc(O)c(C=NNc2ccccc2Br)c1` [(25), 5-carboxyl-2-hydroxybenzaldehyde-N-2-bromophenyl hydrazone] gave an MIC of 1 µg/mL (≈ 2.98 µM).

Regarding `O=C(O)c1ccc(O)c(C=NNc2ccccc2Cl)c1` [(26), 5-carboxyl-2-hydroxybenzaldehyde-N-2-chlorophenyl hydrazone], the MIC worked out at 0.5 µg/mL (≈ 1.72 µM).

`Cc1cccc(NN=Cc2cc(C(=O)O)ccc2O)c1` [(27), 5-carboxyl-2-hydroxybenzaldehyde-N-3-methyl-phenyl hydrazone] yielded an MIC of 0.25 µg/mL (≈ 0.925 µM).

Regarding `COc1ccccc1NN=Cc1cc(C(=O)O)ccc1O` [(28), 5-carboxyl-2-hydroxybenzaldehyde-N-2-methoxy-phenyl hydrazone], the minimum inhibitory concentration (MIC) came out at 0.25 µg/mL (≈ 0.873 µM).

Regarding `Cc1c(Cl)cccc1NN=Cc1cc(C(=O)O)ccc1O` [(29), 5-carboxyl-2-hydroxybenzaldehyde-N-3-chloro-2-methyl-phenyl hydrazone], the MIC is 1 µg/mL (≈ 3.28 µM).

Compound `O=C(O)c1ccc(O)c(C=NNc2cccc(Cl)c2)c1` [(30), 5-carboxyl-2-hydroxybenzaldehyde-N-3-chloro-phenyl hydrazone] yielded a minimum inhibitory concentration (MIC) of 0.5 µg/mL (≈ 1.72 µM).

`Oc1ccccc1CNNc1ccccc1` [(32)] came in with an MIC of 0.125 µg/mL (≈ 0.583 µM).

In turn, `COc1nccnc1NNCc1ccccc1O` [(33)] showed an MIC of 4 µg/mL (≈ 16.2 µM).

Turning to `FC(F)(F)c1cc(NC(=S)N/N=C/c2ccccn2)cc(C(F)(F)F)c1` [(37)], the MIC was determined as 1 µg/mL (≈ 2.55 µM).

The compound `Fc1ccc(NC(=S)N/N=C/c2ccccn2)cc1` [(39)] registered a minimal inhibitory concentration (MIC) of 4 µg/mL (≈ 14.6 µM).

The values are drawn from patent US6329378A, “Hydrazone, hydrazine and thiosemicarbazone derivatives as antifungal agents” (Anadys Pharmaceuticals, Inc., priority 2000, dated 2001).
